Structures are written as SMILES. Entries after “also recorded” stand apart in the source; their conditions may differ.

Common to all, as to format: cell-based, human
Assay [1] deals with CuFi-1 (ΔF508/ΔF508) epithelia. As to the kind of experiment: ASL pH in cultured CF airway epithelia (SNARF-dextran). The method, then: (§1) Small diameter NuLi, CuFi, and primary cultured epithelia were used for this experiment (0.33 cm^2). The ratiometric pH indicator SNARF-conjugated dextran (Molecular Probes) was used to measure ASL pH. SNARF powder was suspended via sonication in perfluorocarbon (FC-72, Sigma) and distributed onto the apical surface. ASL pH was measured 2 hr later (3, 4, 25). SNARF was excited at 488 nm and emission was recorded at 580 nm and 640 nm using a Zeiss LSM 800 microscope at 40× water immersion for cell line cultures and a Zeiss LSM 510 microscope for primary cultures. To generate a standard curve for pH determination, SNARF was dissolved in colorless pH standards and fluorescence ratios were converted to pH.
(§2) Agents tested in this assay were first lyophilized into powder and then suspended in the appropriate volume of perfluorocarbon (FC-72, Sigma) and sonicated for 1 minute to suspend. AmBisome should not be sonicated; instead, the fine powder was suspended by vortexing.
(§3) In all experiments, ASL pH of compound-treated epithelia was measured compared the results to vehicle-treated epithelia.
(§4) For apical AmB administration, cultured airway epithelia were incubated for 30 min-48 hrs at 37° C. before measurement of ASL pH. For AmB-cholesterol complex and C35deOAmB administration, cultured airway epithelia were incubated for 48 hrs at 37° C. before measurement of ASL pH. To test the effect of […] ATPase inhibition, AmB was administered 47 hours prior to 10 mM ouabain addition, and cultured airway epithelia were incubated for an additional 1 hr at 37° C. before measurement of ASL pH. For 10 μM ivacaftor/10 μM forskolin administration, cultured airway epithelia were incubated for 2 hrs at 37° C. before measurement of ASL pH (25). For basolateral AmB administration, a 2 mM stock of AmB in DMSO was diluted 1000-fold to a final concentration of 2 μM in USG media. The basolateral media of cultured airway epithelia was replaced with the AmB-containing USG media and incubated for 48 hrs at 37° C. before measurement of ASL pH.

The subject of assay [2] is CuFi-4 (G551D/ΔF508) epithelia. The description is as above. The method, then: as §1, §2, §3, §4
Assay [3] has as its system CuFi-1 (ΔF508/ΔF508) epithelia. Nature of the assay: Basolateral to apical H14CO3- transport. On the procedure:
(§5) Small diameter NuLi and CuFi cultured epithelia were used for this experiment (0.33 cm^2). ^14C-labeled sodium HCO3^− was obtained as a sterile 35.7 mM aqueous solution pH 9.5 (MP Biomedicals 0117441H). All experiments were run less than 2 months post seeding. Fresh USG media was added to the basolateral side prior to experimentation. The apical membrane was treated with 20 μL of vehicle, AmB, or ivacaftor/forskolin as a suspension in perfluorocarbon-72 (Sigma Aldrich), and the cultured epithelia were incubated for 48 hours, 7 days, 14 days, or 28 days at 37° C. in a 5% C02 atmosphere. After the end of the treatment period, 5 μL of a 1.4 mM H^14CO3^− stock solution in USG media was added to the basolateral media. The cultured epithelia were then incubated at 37° C. for 10 minutes. After 10 minutes, the apical membrane of the cultured epithelia was immediately washed with 200 μL of PBS. The ASL wash and a 200 μL aliquot of the basolateral media were diluted in scintillation cocktail and analyzed via liquid scintillation counting (23).

Assay [4] has as its system CuFi-4 (G551D/ΔF508) epithelia. Nature of the assay: Basolateral to apical H14CO3- transport. To be noted: AmB 2 μM, ivacaftor/forskolin 10 μM. The method, then: as §5
In assay [5] the test system is CuFi-1 (ΔF508/ΔF508) epithelia. Nature of the assay: ASL cation concentrations by ICP-MS. The following applies: AmB 2 μM, 48 h, vs FC-72 vehicle. The method, then: Small diameter CuFi-1 cultured epithelia were used for this experiment (0.33 cm^2). 24 hours prior to the start of experiment, the apical side of all cultured epithelia was rinsed three times with 200 μL warm PBS to remove excess mucus. Fresh USG media was added to the basolateral membrane. CuFi-1 epithelia were treated with either perfluorocarbon (FC-72) vehicle or 2 μM AmB suspended in FC-72, and incubated at 37° C. for 48 hours. 0.1 μL capacity microcapillary tubes (Drummond Scientific NC1453214) were placed into 200 μL pipette tips (Denville Scientific P1122). 48 hours after AmB addition, the microcapillary tubes were gently touched around the edge of the apical membrane of each epithelial culture insert until completely filled with ASL via capillary action. […] The sample was then quantitatively transferred to a 15 mL capacity conical vial by washing 3 times with 50 μL molecular biology grade water.
Quantification of sodium, magnesium, potassium, and calcium was accomplished using inductively coupled plasma mass spectrometry (ICP-MS) of acidified samples. […] Quantitative standards were made using a mixed Na, Mg, K, and Ca standard at 100 μg/mL of each element (Inorganic Ventures, Christiansburg, VA, USA) which were combined to create a 100 ng/mL mixed element standard in 1.0% nitric acid (v/v). […]

In the case of `C[C@@H]1[C@H](O)[C@@H](C)/C=C/C=C/C=C/C=C/C=C/C=C/C=C/[C@H](O[C@@H]2O[C@H](C)[C@@H](O)[C@H](N)[C@@H]2O)C[C@@H]2O[C@](O)(C[C@@H](O)C[C@@H](O)[C@H](O)CC[C@@H](O)C[C@@H](O)CC(=O)O[C@H]1C)C[C@H](O)[C@H]2C(=O)O` [AmB, amphotericin B], in assay [1] (AmB 2 μM basolateral, 48 h), the “ASL pH, basolateral addition of AmB” value was “an increase in ASL pH was not observed; also recorded: No increase in pH was observed; also recorded: did not raise ASL pH or increase H^14CO3^− secretion”. Also, in assay [1] (AmB or C35deOAmB 2 μM, ivacaftor/forskolin 10 μM, 2 h, vs vehicle), the “ASL pH, apical addition” value is reported as “increases ASL pH relative to an untreated CuFi-1 control over 2 hours; also recorded: progressive increase in pH over 2 hours; also recorded: increased the ASL pH; also recorded: increased both; also recorded: progressively increased ASL pH over 2 hours”. Moreover, in assay [1] (apical AmB 2 μM), the “time for which the increase in ASL pH is sustained” value was “at least 48 hours”. The “AmB concentration at which increase in ASL pH reaches a maximum” value in assay [1] (apical addition) was 2 μM. Also, the “concentration dependence of ASL pH increase” value in assay [1] (increasing concentrations up to 100 μM AmB) was “increases ASL pH in CuFi-1 monolayers at low but not at high concentrations; also recorded: decreases at higher concentrations; also recorded: ASL pH increased and then fell with progressively increasing concentrations of AmB”. Further, the “increase in ASL pH” value in assay [2] (AmB 2 μM, ivacaftor/forskolin 10 μM) is around 0.2 unit. Besides, the “ASL pH” value in assay [2] (apical AmB 2 μM 48 h, ivacaftor/forskolin 10 μM 2 h) was “increase ASL pH; also recorded: increased the ASL pH; also recorded: increased ASL pH and H^14CO3^− secretion”. For the same compound, in assay [3] (AmB 2 μM left on epithelia), the “time for which increase in H^14CO3^− secretion is sustained” value is listed as “at least 7 days”. Besides, the “basolateral to apical H^14CO3^− transport, apical addition” value in assay [3] (over 10 minutes, AmB or C35deOAmB 2 μM, ivacaftor/forskolin 10 μM) is on record as “restored normal bicarbonate transport; also recorded: increased the rate of ^14C bicarbonate to match that observed in NuLi epithelia; also recorded: effective in both genotypes; also recorded: increased both”. Besides, the “H^14CO3^− transepithelial transport” value in assay [4] is “increase H^14CO3-transepithelial transport; also recorded: effective in both genotypes; also recorded: the same increase in rate of bicarbonate efflux; also recorded: increased ASL pH and H^14CO3^− secretion”. Further, the ASL cation concentrations result in assay [5] is listed as “unchanged as compared to vehicle-treated controls; also recorded: do not alter major cation concentrations in the ASL”.

(Values after patent publication US12090164B2, “Genotype-agnostic rescue of cystic fibrosis with small molecule bicarbonate channels” (The Board of Trustees of the University of Illinois, priority 2017, dated 2024).)
